Experimental data published in patent US20260250251A1, “HETEROCYCLIC COMPOUNDS AS PI3Ka INHIBITORS” (Pikavation Therapeutics, Inc., priority 2022, published 2026).

What was measured:
[1] = system: T47D (PIK3CA H1047R) cells, pSer473 AKT; assay: pS473 AKT assay in T47D cells; type: cell-based; settings: Homo sapiens, treated 2 h, read-out: T47D_IC50
Summary of the method: (§1)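 Cells exposed 2 h to a range of PI3Kα inhibitor concentrations, then paraformaldehyde-fixed and probed for pSer473 AKT with rabbit primary overnight at 4 °C and HRP anti-rabbit secondary. Chemiluminescent cell-based ELISA read-out; IC50 from concentration-response fitting.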

[2] = system: SKBR3 (PIK3CA WT) cells, pSer473 AKT; assay: pS473 AKT assay in SKBR3 cells; type: cell-based; settings: Homo sapiens, SK-BR-3, treated 2 h, read-out: SKBR3_IC50
Summary of the method: as §1

Row | SMILES | IC50 [1] [nM] | IC50 [2] [nM]
1 | Nc1nn2c3c(cc(NC(=O)c4cc(F)cc(C(F)(F)F)c4)c(Oc4cc(F)ccc4Cl)c13)-c1ccccc1C2 [Example 70, N-(4-Amino-3-(2-chloro-5-fluorophenoxy)-7H-pyrazolo[4,5,1-de]phenanthridin-2-yl)-3-fluoro-5-(trifluoromethyl)benzamide] | < 1000 | ≥ 10000
2 | Nc1nn2c(=O)c3ccccc3c3cc(NC(=O)c4cc(F)cc(C(F)(F)F)c4)c(Oc4cc(F)ccc4Cl)c1c32 [Example 73, N-(4-Amino-3-(2-chloro-5-fluorophenoxy)-7-oxo-7H-pyrazolo[4,5,1-de]phenanthridin-2-yl)-3-fluoro-5-(trifluoromethyl)benzamide] | < 1000 | < 1000
3 | Cn1nc(N)c2c(Oc3cc(F)ccc3Cl)c(NC(=O)c3cc(F)cc(C(F)(F)F)c3)cc(/C=C/c3ccccn3)c21 [Example 76, (E)-N-(3-Amino-4-(2-chloro-5-fluorophenoxy)-1-methyl-7-(2-(pyridin-2-yl)vinyl)-1H-indazol-5-yl)-3-fluoro-5-(trifluoromethyl)benzamide] | < 1000 | 5000 to 10000
4 | Cn1nc(N)c2c(Oc3cc(F)ccc3Cl)c(NC(=O)c3cc(F)cc(C(F)(F)F)c3)cc(CCc3ccccn3)c21 [Example 77, N-(3-Amino-4-(2-chloro-5-fluorophenoxy)-1-methyl-7-(2-(pyridin-2-yl)ethyl)-1H-indazol-5-yl)-3-fluoro-5-(trifluoromethyl)benzamide] | < 1000 | 1000 to 5000
5 | CC(=O)N1CCCCC1C#Cc1cc(NC(=O)c2cc(F)cc(C(F)(F)F)c2)c(Oc2cc(F)ccc2Cl)c2c(N)nn(C)c12 (centres unmarked) [Example 79, N-(7-((1-Acetylpiperidin-2-yl)ethynyl)-3-amino-4-(2-chloro-5-fluorophenoxy)-1-methyl-1H-indazol-5-yl)-3-fluoro-5-(trifluoromethyl)benzamide] | < 1000 | 1000 to 5000
6 | CNC(=O)N1CCCCC1C#Cc1cc(NC(=O)c2cc(F)cc(C(F)(F)F)c2)c(Oc2cc(F)ccc2Cl)c2c(N)nn(C)c12 (centres unmarked) [Example 80, 2-((3-Amino-4-(2-chloro-5-fluorophenoxy)-5-(3-fluoro-5-(trifluoromethyl)benzamido)-1-methyl-1H-indazol-7-yl)ethynyl)-N-methylpiperidine-1-carboxamide] | < 1000 | 1000 to 5000

Results, then the compound that gave them:

Row | IC50 [1] [nM] | IC50 [2] [nM] | SMILES
7 | < 1000 | < 1000 | Nc1nn2c3c(cc(NC(=O)c4cc(F)cc(C(F)(F)F)c4)c(Oc4cc(F)ccc4Cl)c13)CN(C1CC1)C2=O [Example 71, N-(2-Amino-3-(2-chloro-5-fluorophenoxy)-7-cyclopropyl-8-oxo-7,8-dihydro-6H-pyrazolo[4,5,1-ij]quinazolin-4-yl)-3-fluoro-5-(trifluoromethyl)benzamide]
8 | < 1000 | < 1000 | Nc1nn2c3c(cc(NC(=O)c4cc(F)cc(C(F)(F)F)c4)c(Oc4cc(F)ccc4Cl)c13)CN(C1CCC1)C2=O [Example 72, N-(2-Amino-3-(2-chloro-5-fluorophenoxy)-7-cyclobutyl-8-oxo-7,8-dihydro-6H-pyrazolo[4,5,1-ij]quinazolin-4-yl)-3-fluoro-5-(trifluoromethyl)benzamide]
9 | < 1000 | < 1000 | Nc1nn2c(=O)c3c(c4cc(NC(=O)c5cc(F)cc(C(F)(F)F)c5)c(Oc5cc(F)ccc5Cl)c1c42)CCC3 [Example 74, N-(4-Amino-3-(2-chloro-5-fluorophenoxy)-7-oxo-7,8,9,10-tetrahydrocyclopenta[c]pyrazolo[4,5,1-ij]quinolin-2-yl)-3-fluoro-5-(trifluoromethyl)benzamide]
10 | < 1000 | < 1000 | Nc1nn2c(=O)c3c(c4cc(NC(=O)c5cc(F)cc(C(F)(F)F)c5)c(Oc5cc(F)ccc5Cl)c1c42)CCCC3 [Example 75, N-(4-Amino-3-(2-chloro-5-fluorophenoxy)-7-oxo-8,9,10,11-tetrahydro-7H-pyrazolo[4,5,1-de]phenanthridin-2-yl)-3-fluoro-5-(trifluoromethyl)benzamide]
11 | < 1000 | 1000 to 5000 | Cn1nc(N)c2c(Oc3cc(F)ccc3Cl)c(NC(=O)c3cc(F)cc(C(F)(F)F)c3)cc(C#CC3CCCCN3)c21 (centres unmarked) [Example 78, N-(3-Amino-4-(2-chloro-5-fluorophenoxy)-1-methyl-7-(piperidin-2-ylethynyl)-1H-indazol-5-yl)-3-fluoro-5-(trifluoromethyl)benzamide]
12 | < 1000 | 1000 to 5000 | CS(=O)(=O)n1nc(N)c2c(Oc3cc(F)ccc3Cl)c(NC(=O)c3cc(F)cc(C(F)(F)F)c3)cc(Br)c21 [Example 81, N-(3-Amino-7-bromo-4-(2-chloro-5-fluorophenoxy)-1-(methylsulfonyl)-1H-indazol-5-yl)-3-fluoro-5-(trifluoromethyl)benzamide]
13 | < 1000 | 1000 to 5000 | CC(=O)n1nc(N)c2c(Oc3cc(F)ccc3Cl)c(NC(=O)c3cc(F)cc(C(F)(F)F)c3)cc(Br)c21 [Example 82, N-(1-Acetyl-3-amino-7-bromo-4-(2-chloro-5-fluorophenoxy)-1H-indazol-5-yl)-3-fluoro-5-(trifluoromethyl)benzamide]
